The values below come from US4323581A, “Method of treating carcinogenesis” (priority 1978, dated 1982).

SMILES strings stand for the structures.

The conditions of series [1]: cited from earlier work; for toxicity at high dosage levels: higher mammals.
For the next series, the system named is chemical carcinogenesis. The note with it: in vivo; cited from earlier work.
For another series, the system named is breast cancer. Particulars: in vivo; cited from earlier work.
Series [2] has as its system MNU-induced mammary cancer. The experiment in a line: Inhibition of mammary carcinogenesis induced by N-methyl-N-nitrosourea (MNU), rat breast cancer. It is filed as in vivo, Female Sprague-Dawley rats. The note with it: Table II, 73 days.
Series [3] deals with tracheal epithelium. The note with it: small concentrations, as low as; cited from earlier work.
The test system of series [4] is tracheal epithelium. The experiment in a line: Reversal of keratinized squamous metaplastic lesions of vitamin A deficiency in tracheal organ culture. It is filed as cell-based. Particulars: collected day 10; for % of Cultures with Respective Amounts of Squamous Metaplasia: Marked: marked = 10-40% squamous; for % of Cultures with Respective Amounts of Squamous Metaplasia: Mild: mild = 2-10% squamous; for % of Cultures with Respective Amounts of Squamous Metaplasia: Minimal: minimal = less than 2% squamous; for % of Cultures with Respective Amounts of Squamous Metaplasia: Severe: severe = more than 40% squamous. The text has this:
N-(4-hydroxyphenyl)-all-trans-retinamide was compared with retinoic acid in an in vitro screening model for identifying retinoids having activity in preventing carcinogenesis in epithelial tissue. The experimental method, which is described in Experimental Lung Cancer:Intern'l Symp, 575-82, 1974, involves reversal of keratinization in tracheal organ culture.
In brief summary, in the absence of retinoic acid or a synthetic retinoid having similar activity, the test organ culture of tracheal epithelium undergoes abnormal differentiation. Addition of small concentrations of retinoic acid (as low as 10^-9 M) will cause reversion to normal tracheal epithelium. Test compounds are compared in activity to retinoic acid or another active standard both as regards squamous metaplasia and keratin production, both of which are measures of abnormal development of the epithelial culture.
In carrying out the tests reported in Table I, all tracheas were cultured for the first 3 days in medium without retinoid. At this time, some tracheas were collected, while the rest were cultured for a further week in medium containing either no retinoid, or retinoid added at the concentrations shown. These tracheas were collected on the 10th day of culture. Cultures were graded as to the percentage of their total epithelium showing squamous metaplasia on eight cross sections from the middle of each trachea. If more than 40% of the total epithelial length was squamous, it was graded as having severe squamous metaplasia; between 10-40% was graded as marked; between 2-10% was graded as mild; and less than 2% was graded as minimal.

Where [5] appears, read: MNU high dose (50 mg/kg), 328 mg/kg diet.
Where [6] appears, read: MNU high dose (50 mg/kg), 656 mg/kg diet.
Setting [7] is: MNU low dose (15 mg/kg), 328 mg/kg diet.
The mark [8] stands for this setting: MNU low dose (15 mg/kg), 656 mg/kg diet.

As to `CCCCCCCCCCCCCCCC(=O)OC/C=C(C)/C=C/C=C(C)/C=C/C1=C(C)CCCC1(C)C` [retinyl palmitate], the “toxicity at high dosage levels” value in series [1] was “too toxic at high dosage levels to be of practical value for cancer prevention in higher mammals”.
As to `CC1=C(/C=C/C(C)=C/C=C/C(C)=C\C(=O)O)C(C)(C)CCC1` [13-cis-retinoic acid], the “toxicity relative to retinoic acid or the natural retinyl esters” value in series [1] (in vivo) was “considerably less toxic than retinoic acid or the natural retinyl esters”. Besides, the “potency in preventing chemical carcinogenesis relative to retinoic acid or the natural retinyl esters” value in the series on chemical carcinogenesis is recorded as “more potent in preventing chemical carcinogenesis”. For the same compound, the “effectiveness against breast cancer in the rat model” value in the series with breast cancer was “has not been found to be particularly effective against breast cancer in the rat model”.
As to `CC(=O)OC/C=C(C)/C=C/C=C(C)/C=C/C1=C(C)CCCC1(C)C` [Retinyl Acetate, retinyl acetate, reference compound], the “toxicity at high dosage levels” value in series [1] is “too toxic at high dosage levels to be of practical value for cancer prevention in higher mammals”. For the same compound, the “Mammary Tumor Incidence” value in series [2] (setting [5]) was 5/19; in series [2] (setting [6]), 4/17; in series [2] (setting [7]), 0/39; in series [2] (setting [8]), 0/40; in series [2] (saline, 328 mg/kg diet), 0/10; in series [2] (saline, 656 mg/kg diet), 0/10. Further, the “Mammary Tumor Incidence (%)” value stood at 26% in series [2] (setting [5]); 24% in series [2] (setting [6]); 0% in series [2] (setting [7]); 0% in series [2] (setting [8]); 0% in series [2] (saline, 328 mg/kg diet); 0% in series [2] (saline, 656 mg/kg diet).
As for `CC1=C(/C=C/C(C)=C/C=C/C(C)=C/C(=O)O)C(C)(C)CCC1` [Retinoic Acid, retinoic acid, reference compound], the “lowest concentration causing reversion to normal tracheal epithelium” value with tracheal epithelium [3] was 10^-9 M. Also, in series [1], the “toxicity at high dosage levels” value is given as “too toxic at high dosage levels to be of practical value for cancer prevention in higher mammals”. Moreover, in the series on tracheal epithelium [4] (10^-8 M), the “% of Cultures with Keratin and Keratohyaline Granules” value turned out to be 0%; the “% of Cultures with Respective Amounts of Squamous Metaplasia: None” value (from here on “% of Cultures with Respective Amounts … None”) was found to be 27%; the “% of Cultures with Respective Amounts of Squamous Metaplasia: Marked” value (“% of Cultures with Respective Amounts … Marked” for short) is listed as 0%; the “% of Cultures with Respective Amounts of Squamous Metaplasia: Mild” value (shortened to “% of Cultures with Respective Amounts … Mild”) is 23%. Moreover, in the series on tracheal epithelium [4] (10^-8 M), the “% of Cultures with Respective Amounts of Squamous Metaplasia: Minimal” value (from here on “% of Cultures with Respective Amounts … Minimal”) is 49% and the “% of Cultures with Respective Amounts of Squamous Metaplasia: Severe” value (“% of Cultures with Respective Amounts … Severe” below) was determined as 0%. In the series on tracheal epithelium [4] (10^-9 M), the “% of Cultures with Keratin and Keratohyaline Granules” value was found to be 3%; the “% of Cultures with Respective Amounts … None” value was 16%; the “% of Cultures with Respective Amounts … Marked” value is given as 12%; the “% of Cultures with Respective Amounts … Mild” value is recorded as 32%. Further, in the series with tracheal epithelium [4] (10^-9 M), the “% of Cultures with Respective Amounts … Minimal” value worked out at 37% and the “% of Cultures with Respective Amounts … Severe” value turned out to be 2%. In addition, in the series with tracheal epithelium [4] (10^-10 M), the “% of Cultures with Keratin and Keratohyaline Granules” value was found to be 32%; the “% of Cultures with Respective Amounts … None” value was 9%; the “% of Cultures with Respective Amounts … Marked” value is 17%; the “% of Cultures with Respective Amounts … Mild” value was determined as 43%. Moreover, in the series on tracheal epithelium [4] (10^-10 M), the “% of Cultures with Respective Amounts … Minimal” value is given as 4% and the “% of Cultures with Respective Amounts … Severe” value was determined as 28%.
